Laboratory results taken from patent US10160747B2, “Compounds and methods for kinase modulation, and indications therefor” (Plexxikon Inc., priority 2016, dated 2018).

What follows are compounds tested against T1, BA/F3-FLT3-ITD + D835Y (Homo sapiens, UniProt P36888, D835Y, cells depend on it, form not given) (assay: Engineered BA/F3 cell growth assay, FLT3 ITD/D835Y). Conditions: 3 d growth.
T1 sequence (P36888 with tags, fused parts or gaps INS600HVDFREYEYD/D835Y): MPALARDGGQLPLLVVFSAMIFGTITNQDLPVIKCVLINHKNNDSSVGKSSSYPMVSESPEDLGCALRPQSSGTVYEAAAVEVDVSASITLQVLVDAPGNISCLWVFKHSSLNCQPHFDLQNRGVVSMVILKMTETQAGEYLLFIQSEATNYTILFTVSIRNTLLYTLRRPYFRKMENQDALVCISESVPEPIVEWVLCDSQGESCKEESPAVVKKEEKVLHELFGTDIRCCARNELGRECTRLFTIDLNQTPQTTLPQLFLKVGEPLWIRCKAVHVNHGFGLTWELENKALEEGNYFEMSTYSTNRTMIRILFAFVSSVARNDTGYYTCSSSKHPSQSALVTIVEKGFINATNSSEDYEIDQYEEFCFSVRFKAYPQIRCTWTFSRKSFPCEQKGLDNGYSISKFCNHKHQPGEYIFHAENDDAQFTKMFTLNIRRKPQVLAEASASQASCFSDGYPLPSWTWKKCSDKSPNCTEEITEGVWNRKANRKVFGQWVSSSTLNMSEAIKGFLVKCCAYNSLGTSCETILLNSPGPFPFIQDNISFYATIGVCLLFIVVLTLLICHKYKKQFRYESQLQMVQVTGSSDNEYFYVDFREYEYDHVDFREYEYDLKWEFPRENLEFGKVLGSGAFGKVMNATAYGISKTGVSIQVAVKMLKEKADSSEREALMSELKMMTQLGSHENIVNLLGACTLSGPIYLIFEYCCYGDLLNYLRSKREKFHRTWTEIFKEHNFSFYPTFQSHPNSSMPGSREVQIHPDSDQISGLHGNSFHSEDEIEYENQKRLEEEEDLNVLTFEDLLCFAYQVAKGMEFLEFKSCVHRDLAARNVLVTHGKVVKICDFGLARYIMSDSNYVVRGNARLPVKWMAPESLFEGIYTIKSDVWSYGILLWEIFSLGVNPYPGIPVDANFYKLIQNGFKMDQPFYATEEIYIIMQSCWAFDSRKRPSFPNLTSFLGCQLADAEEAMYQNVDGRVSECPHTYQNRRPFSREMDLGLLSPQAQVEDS
Format: cell-based, murine
Outline: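 Murine Ba/F3 cells transfected with full-length FLT3 ITD/D835Y, grown without IL-3 so growth depends on FLT3. Seeded at 1×10^4 cells/well, 8-point 1:3 series to 1 μM top (0.2% DMSO), 3 days at 37 °C. CellTiter-Glo luminescence (ATP) versus concentration gave IC50.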

SMILES | GI50 [µM]
CCn1cc(Nc2ncc(-c3ccc(CC(=O)Nc4cncc(C(F)(F)F)c4)cc3)cn2)cn1 [Compound P-0166, 2-[4-[2-[(1-ethylpyrazol-4-yl)amino]pyrimidin-5-yl]phenyl]-N-[5-(trifluoromethyl)-3-pyridyl]acetamide] | 0.0001 to 10
Cn1cnc(Nc2ncc(-c3ccc(CC(=O)Nc4cncc(C(F)(F)F)c4)cc3)cn2)c1 [Compound P-0167] | 0.0001 to 10
Cn1cnc(Nc2ncc(-c3ccc(CC(=O)Nc4cnc(F)c(C(C)(F)F)c4)cc3)cn2)c1 [Compound P-0168, N-[5-(1,1-difluoroethyl)-6-fluoro-3-pyridyl]-2-[4-[2-[(1-methylimidazol-4-yl)amino]pyrimidin-5-yl]phenyl]acetamide] | 0.0001 to 10
Cn1cnc(Nc2ncc(-c3ccc(CC(=O)Nc4cc(C(C)(F)F)ccn4)cc3)cn2)c1 [Compound P-0169, N-[4-(1,1-difluoroethyl)-2-pyridyl]-2-[4-[2-[(1-methylimidazol-4-yl)amino]pyrimidin-5-yl]phenyl]acetamide] | 0.0001 to 10
Cn1cnc(Nc2ncc(-c3ccc(CC(=O)Nc4cnc(F)c(C(C)(F)F)c4)cc3F)cn2)c1 [Compound P-0170, N-[5-(1,1-difluoroethyl)-6-fluoro-3-pyridyl]-2-[3-fluoro-4-[2-[(1-methylimidazol-4-yl)amino]pyrimidin-5-yl]phenyl]acetamide] | 0.0001 to 10
Cc1ncc(NC(=O)Cc2ccc(-c3cnc4[nH]nc(C)c4c3)c(F)c2)cc1C(F)(F)F [Compound P-0172, 2-[3-fluoro-4-(3-methyl-1H-pyrazolo[3,4-b]pyridin-5-yl)phenyl]-N-[6-methyl-5-(trifluoromethyl)-3-pyridyl]acetamide] | 0.0001 to 10
Cc1n[nH]c2ncc(-c3cc(F)c(CC(=O)Nc4cncc(C(F)(F)F)c4)cc3F)cc12 [Compound P-0173, 2-[2,5-difluoro-4-(3-methyl-1H-pyrazolo[3,4-b]pyridin-5-yl)phenyl]-N-[5-(trifluoromethyl)-3-pyridyl]acetamide] | 0.0001 to 10
COc1ncc(NC(=O)Cc2ccc(-c3cnc4[nH]nc(C)c4c3)c(F)c2)cc1C(F)(F)F [Compound P-0174, 2-[3-fluoro-4-(3-methyl-1H-pyrazolo[3,4-b]pyridin-5-yl)phenyl]-N-[6-methoxy-5-(trifluoromethyl)-3-pyridyl]acetamide] | 0.0001 to 10
Cc1ncc(NC(=O)Cc2cc(F)c(-c3cnc4[nH]nc(C)c4c3)cc2F)cc1C(F)(F)F [Compound P-0175, 2-(2,5-difluoro-4-(3-methyl-1H-pyrazolo[3,4-b]pyridin-5-yl)phenyl)-N-(6-methyl-5-(trifluoromethyl)pyridin-3-yl)acetamide] | 0.0001 to 10
COc1ncc(NC(=O)Cc2cc(F)c(-c3cnc4[nH]nc(C)c4c3)cc2F)cc1C(F)(F)F [Compound P-0176, 2-[2,5-difluoro-4-(3-methyl-1H-pyrazolo[3,4-b]pyridin-5-yl)phenyl]-N-[6-methoxy-5-(trifluoromethyl)-3-pyridyl]acetamide] | 0.0001 to 10
Cc1n[nH]c2ncc(-c3ccc(CC(=O)Nc4cncc(C(F)(F)F)c4)cc3F)cc12 [Compound P-0177, 2-[3-fluoro-4-(3-methyl-1H-pyrazolo[3,4-b]pyridin-5-yl)phenyl]-N-[5-(trifluoromethyl)-3-pyridyl]acetamide] | 0.0001 to 10
COCCn1cc(Nc2ncc(-c3ccc(CC(=O)Nc4cncc(C(F)(F)F)c4)cc3)cn2)cn1 [Compound P-0178, 2-[4-[2-[[1-(2-methoxyethyl)pyrazol-4-yl]amino]pyrimidin-5-yl]phenyl]-N-[5-(trifluoromethyl)-3-pyridyl]acetamide] | 0.0001 to 10
COCCn1cc(Nc2ncc(-c3ccc(CC(=O)Nc4cnc(C)c(C(F)(F)F)c4)cc3)cn2)cn1 [Compound P-0179, 2-[4-[2-[[1-(2-methoxyethyl)pyrazol-4-yl]amino]pyrimidin-5-yl]phenyl]-N-[6-methyl-5-(trifluoromethyl)-3-pyridyl]acetamide] | 0.0001 to 10
COc1nn(C[C@H](C)O)cc1Nc1ncc(-c2ccc(CC(=O)Nc3cnc(C)c(C(F)(F)F)c3)cc2)cn1 [Compound P-0180, 2-[4-[2-[[1-[(2S)-2-hydroxypropyl]-3-methoxy-pyrazol-4-yl]amino]pyrimidin-5-yl]phenyl]-N-[6-methyl-5-(trifluoromethyl)-3-pyridyl]acetamide] | 0.0001 to 10
O=C(Cc1ccc(-c2cnc3[nH]c(-c4ccnc(N5CCOCC5)c4)cc3c2)cn1)Nc1ccnc(C(F)(F)F)c1 [Compound P-0181, 2-[5-[2-(2-morpholino-4-pyridyl)-1H-pyrrolo[2,3-b]pyridin-5-yl]-2-pyridyl]-N-[2-(trifluoromethyl)-4-pyridyl]acetamide] | 0.0001 to 10
N#Cc1cc(-c2cc3cc(-c4ccc(CC(=O)Nc5ccnc(C(F)(F)F)c5)nc4)cnc3[nH]2)ccn1 [Compound P-0182, 2-[5-[2-(2-cyano-4-pyridyl)-1H-pyrrolo[2,3-b]pyridin-5-yl]-2-pyridyl]-N-[2-(trifluoromethyl)-4-pyridyl]acetamide] | 0.0001 to 10
O=C(Cc1ccc(-c2cnc3[nH]c(-c4ccc(N5CCOCC5)nc4)cc3c2)cn1)Nc1ccnc(C(F)(F)F)c1 [Compound P-0183, 2-[5-[2-(6-morpholino-3-pyridyl)-1H-pyrrolo[2,3-b]pyridin-5-yl]-2-pyridyl]-N-[2-(trifluoromethyl)-4-pyridyl]acetamide] | 0.0001 to 10
COc1ccc(-c2cc3cc(-c4ccc(CC(=O)Nc5cc(C(F)(F)F)ccn5)cc4F)cnc3[nH]2)cn1 [Compound P-0191, 2-[3-fluoro-4-[2-(6-methoxy-3-pyridyl)-1H-pyrrolo[2,3-b]pyridin-5-yl]phenyl]-N-[4-(trifluoromethyl)-2-pyridyl]acetamide] | 0.0001 to 10
O=C(Cc1ccc(-c2cnc3[nH]c(-c4ccc(N5CCOCC5)nc4)cc3c2)c(F)c1)Nc1cc(C(F)(F)F)ccn1 [Compound P-0192, 2-[3-fluoro-4-[2-(6-morpholino-3-pyridyl)-1H-pyrrolo[2,3-b]pyridin-5-yl]phenyl]-N-[4-(trifluoromethyl)-2-pyridyl]acetamide] | 0.0001 to 10
N#Cc1cc(-c2cc3cc(-c4ccc(CC(=O)Nc5cc(C(F)(F)F)ccn5)cc4F)cnc3[nH]2)ccn1 [Compound P-0194, 2-[4-[2-(2-cyano-4-pyridyl)-1H-pyrrolo[2,3-b]pyridin-5-yl]-3-fluoro-phenyl]-N-[4-(trifluoromethyl)-2-pyridyl]acetamide] | 0.0001 to 10
N#Cc1ccc(-c2cc3cc(-c4ccc(CC(=O)Nc5cncc(C(F)(F)F)c5)cc4F)cnc3[nH]2)cn1 [Compound P-0195, 2-[4-[2-(6-cyano-3-pyridyl)-1H-pyrrolo[2,3-b]pyridin-5-yl]-3-fluoro-phenyl]-N-[5-(trifluoromethyl)-3-pyridyl]acetamide] | 0.0001 to 10
COc1ccc(-c2cc3cc(-c4ccc(CC(=O)Nc5cncc(C(F)(F)F)c5)cc4F)cnc3[nH]2)cn1 [Compound P-0196, 2-[3-fluoro-4-[2-(6-methoxy-3-pyridyl)-1H-pyrrolo[2,3-b]pyridin-5-yl]phenyl]-N-[5-(trifluoromethyl)-3-pyridyl]acetamide] | 0.0001 to 10
O=C(Cc1ccc(-c2cnc3[nH]c(-c4cnn(C(F)F)c4)cc3c2)c(F)c1)Nc1cncc(C(F)(F)F)c1 [Compound P-0197, 2-[4-[2-[1-(difluoromethyl)pyrazol-4-yl]-1H-pyrrolo[2,3-b]pyridin-5-yl]-3-fluoro-phenyl]-N-[5-(trifluoromethyl)-3-pyridyl]acetamide] | 0.0001 to 10
O=C(Cc1ccc(-c2cnc3[nH]c(-c4ccc(N5CCOCC5)nc4)cc3c2)c(F)c1)Nc1cncc(C(F)(F)F)c1 [Compound P-0198, 2-[3-fluoro-4-[2-(6-morpholino-3-pyridyl)-1H-pyrrolo[2,3-b]pyridin-5-yl]phenyl]-N-[5-(trifluoromethyl)-3-pyridyl]acetamide] | 0.0001 to 10
N#Cc1cc(-c2cc3cc(-c4ccc(CC(=O)Nc5cncc(C(F)(F)F)c5)cc4F)cnc3[nH]2)ccn1 [Compound P-0199, 2-[4-[2-(2-cyano-4-pyridyl)-1H-pyrrolo[2,3-b]pyridin-5-yl]-3-fluoro-phenyl]-N-[5-(trifluoromethyl)-3-pyridyl]acetamide] | 0.0001 to 10
